These results are taken from patent US20120178815A1, “Compositions of (-)-E-10-OH-NT and Methods for Their Synthesis and Use” (Adolor Corporation, priority 2007, published 2012).

Where two headings read alike, the source gives them in different places.

In data set [1] the target is T1, human muscarinic receptor M1 (Homo sapiens, UniProt P11229).
T1 construct: expressed in transfected cells; host or cells: CHO cells (membranes)
The data set is described as follows: Muscarinic M1 receptor binding, [3H]pirenzepine. The following applies: read-out: Affinity for Muscarinic Receptors, M1, Ki. How it is done: (§1) Protocol. […] Bound radioactivity was determined by scintillation spectroscopy. Non-specific binding was defined as the amount of bound radioligand in the presence of 1.0 μM atropine. Radioligand for the M1 receptor was [^3H]pirenzepine (2 nM). Radioligand for the M2 receptor was [^3H]AF-DX384 (2 nM). Radioligand for the M3, M4, and M5 receptors was [^3H]4-DAMP.

In data set [2] the target is T2, 5HT uptake, rat brain synaptosomes (Rattus norvegicus, UniProt P31652).
T2 construct: into rat brain synaptosomes; from tissue; host or cells: rat brain synaptosomes
T2 sequence (P31652 whole entry): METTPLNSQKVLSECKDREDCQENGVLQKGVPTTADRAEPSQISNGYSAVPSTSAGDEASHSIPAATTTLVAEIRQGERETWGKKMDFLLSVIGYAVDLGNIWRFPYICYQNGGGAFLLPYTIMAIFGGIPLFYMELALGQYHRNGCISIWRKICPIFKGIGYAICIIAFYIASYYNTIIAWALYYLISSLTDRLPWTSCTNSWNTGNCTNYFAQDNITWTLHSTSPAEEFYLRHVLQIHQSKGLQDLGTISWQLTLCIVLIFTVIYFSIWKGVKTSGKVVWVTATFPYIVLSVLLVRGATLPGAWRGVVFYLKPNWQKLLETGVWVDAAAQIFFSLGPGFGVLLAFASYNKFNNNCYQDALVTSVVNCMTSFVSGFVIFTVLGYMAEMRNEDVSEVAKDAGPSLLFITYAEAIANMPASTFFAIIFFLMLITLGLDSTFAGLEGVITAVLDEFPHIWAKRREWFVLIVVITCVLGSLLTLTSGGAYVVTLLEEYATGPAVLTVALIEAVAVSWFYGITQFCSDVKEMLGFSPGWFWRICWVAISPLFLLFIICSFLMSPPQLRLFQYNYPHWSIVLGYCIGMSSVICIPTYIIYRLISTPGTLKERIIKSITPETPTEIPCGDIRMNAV
The data set is described as follows: Inhibition of [3H]-5HT uptake into synaptosomes. Format: biochemical. The following applies: read-out: Monoamine Uptake Inhibition, 5HT, IC50.

The target of data set [3] is T3, human muscarinic receptor M3 (Homo sapiens, UniProt P20309).
T3 construct: expressed in transfected cells; host or cells: CHO cells (membranes)
T3 sequence (P20309 whole entry): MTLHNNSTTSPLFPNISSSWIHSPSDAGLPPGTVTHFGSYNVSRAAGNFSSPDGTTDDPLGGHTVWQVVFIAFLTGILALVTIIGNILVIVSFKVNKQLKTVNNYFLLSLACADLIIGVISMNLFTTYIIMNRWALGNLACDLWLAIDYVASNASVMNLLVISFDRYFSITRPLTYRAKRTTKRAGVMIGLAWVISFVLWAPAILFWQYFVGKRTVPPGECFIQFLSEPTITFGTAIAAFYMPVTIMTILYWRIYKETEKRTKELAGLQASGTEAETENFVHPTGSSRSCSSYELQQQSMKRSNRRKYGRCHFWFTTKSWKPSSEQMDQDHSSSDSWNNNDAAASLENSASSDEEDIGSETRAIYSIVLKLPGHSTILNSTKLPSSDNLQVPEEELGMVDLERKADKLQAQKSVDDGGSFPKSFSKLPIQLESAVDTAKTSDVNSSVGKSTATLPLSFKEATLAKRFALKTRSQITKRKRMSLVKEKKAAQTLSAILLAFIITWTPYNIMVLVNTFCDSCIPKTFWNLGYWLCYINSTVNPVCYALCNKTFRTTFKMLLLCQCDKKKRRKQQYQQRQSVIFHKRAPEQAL
Description: Muscarinic M3 receptor binding, [3H]4-DAMP. The following applies: read-out: Affinity for Muscarinic Receptors, M3, Ki. How it is done:
as §1

Data set [4] deals with human NE transporter (hNET) (Homo sapiens, UniProt P23975). The data set is described as follows: NE transporter competitive binding assay, [3H]nisoxetine. As for the experimental part:
(§2) Protocol. […] Bound radioactivity was determined by scintillation spectroscopy. Non-specific binding was defined as the amount of binding that occurred in the presence of 1.0 μM desipramine. The Ki values of the various test compounds were determined using standard methods.
as §2

Another data set concerns the target T4, α2b adrenergic receptor (Homo sapiens, UniProt P18089).
T4 construct: expressed in transfected cells; host or cells: CHO cells
Description: α2b adrenergic receptor binding, [3H]RX821002. Conditions: read-out: Affinity at α2b adrenergic receptor, Ki. As for the experimental part:
Nonspecific binding was determined in the presence of 100 μM (−)-epinephrine. Bound radioactivity was determined by scintillation spectroscopy.

Data set [5] addresses T5, human H1 histaminergic receptor (Homo sapiens, UniProt P35367).
T5 construct: expressed in transfected cells; host or cells: HEK-293 cells (membranes)
The data set is described as follows: H1 histaminergic receptor competitive binding assay, [3H]pyrilamine. The following applies: for reduction of H1 histaminergic receptor affinity compared to AT: relative to AT; for reduction of H1 histaminergic receptor affinity compared to NT: relative to NT. How it is done:
Protocol. The affinities of AT, NT, (+)-E-10-OH-NT and (−)-E-10-OH-NT for the H1 histaminergic receptor were assessed in a competitive binding assay. For the assay, [^3H]pyrilamine (3 nM) was incubated with various concentrations of test compound for 1 hour at 22° C. with membranes prepared from human embryonic kidney (HEK-293) cells heterologously expressing the cloned human H1 histaminergic receptor. Bound radioactivity was determined by scintillation spectroscopy. Non-specific binding was defined as the amount of binding that occurred in the presence of 1.0 μM unlabeled pyrilamine.

The target of data set [6] is T6, human serotonin transporter (hSERT) (Homo sapiens, UniProt P31645).
T6 construct: expressed in transfected cells; host or cells: CHO cells (membranes)
T6 sequence (P31645 whole entry): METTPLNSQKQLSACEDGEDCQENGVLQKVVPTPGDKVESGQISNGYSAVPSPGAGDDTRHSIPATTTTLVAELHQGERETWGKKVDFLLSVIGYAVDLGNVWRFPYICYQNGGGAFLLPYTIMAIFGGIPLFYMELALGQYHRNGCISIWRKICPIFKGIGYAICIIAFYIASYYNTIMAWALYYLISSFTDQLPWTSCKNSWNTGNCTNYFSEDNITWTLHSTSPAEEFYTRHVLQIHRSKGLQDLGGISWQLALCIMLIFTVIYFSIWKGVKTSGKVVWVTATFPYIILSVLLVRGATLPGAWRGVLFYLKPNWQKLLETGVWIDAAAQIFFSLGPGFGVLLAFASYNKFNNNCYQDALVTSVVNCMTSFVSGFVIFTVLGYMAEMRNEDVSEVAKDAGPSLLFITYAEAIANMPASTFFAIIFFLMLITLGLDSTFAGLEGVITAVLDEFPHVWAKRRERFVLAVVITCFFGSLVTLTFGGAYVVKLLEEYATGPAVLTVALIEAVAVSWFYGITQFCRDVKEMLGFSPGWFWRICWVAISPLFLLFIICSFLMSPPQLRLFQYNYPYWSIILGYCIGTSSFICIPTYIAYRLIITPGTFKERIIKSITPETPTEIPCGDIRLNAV
Description: 5HT transporter competitive binding assay, [3H]imipramine. As for the experimental part:
(§3) Bound radioactivity was determined by scintillation spectroscopy. […] The Ki values of the various test compounds were determined using standard methods.
as §3

In data set [7] the test system is gastrointestinal transit in Swiss-Webster mice. Description: Mouse gastrointestinal transit (charcoal meal) assay. The class given is in vivo. The following applies: relative to sterile water vehicle, 1, 2 or 4 hours before charcoal meal. As for the experimental part: Protocol. The inhibitory effect of AT, NT and (−)-E-10-OH-NT were assessed in a rodent model of gastrointestinal transit. For the assay, male Swiss-Webster mice (20-25 g) were fasted overnight and treated with test compound or sterile water vehicle control 1, 2 or 4 hours before per oral administration of a charcoal meal consisting of charcoal:flour:water (1:2:8, w:w:w). Gastrointestinal transit was measured 25 minutes after the charcoal meal. (−)-E-10-OH-NT was administered as either the maleate or succinate salt; AT and NT were administered as hydrochloride salts; the dosage amounts are based on the amount of free base.
Gastrointestinal transit (GIT) was determined by removing the entire length of the small intestine and measuring how far the leading edge of the charcoal meal traveled in the small intestine. The percent GIT (% GIT) was determined by the following formula:
% GIT=[distance to charcoal leading edge (cm)/length of small intestine (cm)×100]

Setting [8] is: Example 4, read-out: Monoamine Transporter Affinity, NE, Ki.
The mark [9] stands for this setting: Example 4, read-out: Monoamine Transporter Affinity, 5HT, Ki.

Chain of human NE transporter (hNET) (P23975 whole entry): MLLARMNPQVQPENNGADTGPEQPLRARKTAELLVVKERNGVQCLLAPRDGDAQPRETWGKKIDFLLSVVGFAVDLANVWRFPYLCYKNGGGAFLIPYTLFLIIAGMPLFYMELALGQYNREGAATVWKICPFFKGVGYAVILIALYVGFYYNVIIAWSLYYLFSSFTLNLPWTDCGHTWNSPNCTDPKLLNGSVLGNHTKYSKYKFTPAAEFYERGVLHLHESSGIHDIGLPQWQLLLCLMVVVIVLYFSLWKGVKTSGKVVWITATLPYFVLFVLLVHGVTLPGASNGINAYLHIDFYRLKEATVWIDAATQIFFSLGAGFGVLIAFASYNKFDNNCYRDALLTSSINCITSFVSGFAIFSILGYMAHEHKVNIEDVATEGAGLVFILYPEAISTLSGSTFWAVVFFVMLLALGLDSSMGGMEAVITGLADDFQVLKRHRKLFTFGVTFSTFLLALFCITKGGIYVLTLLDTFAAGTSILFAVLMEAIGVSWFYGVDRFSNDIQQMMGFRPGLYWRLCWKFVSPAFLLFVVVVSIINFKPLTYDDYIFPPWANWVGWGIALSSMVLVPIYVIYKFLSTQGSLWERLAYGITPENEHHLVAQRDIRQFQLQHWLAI
T5 sequence (P35367 whole entry): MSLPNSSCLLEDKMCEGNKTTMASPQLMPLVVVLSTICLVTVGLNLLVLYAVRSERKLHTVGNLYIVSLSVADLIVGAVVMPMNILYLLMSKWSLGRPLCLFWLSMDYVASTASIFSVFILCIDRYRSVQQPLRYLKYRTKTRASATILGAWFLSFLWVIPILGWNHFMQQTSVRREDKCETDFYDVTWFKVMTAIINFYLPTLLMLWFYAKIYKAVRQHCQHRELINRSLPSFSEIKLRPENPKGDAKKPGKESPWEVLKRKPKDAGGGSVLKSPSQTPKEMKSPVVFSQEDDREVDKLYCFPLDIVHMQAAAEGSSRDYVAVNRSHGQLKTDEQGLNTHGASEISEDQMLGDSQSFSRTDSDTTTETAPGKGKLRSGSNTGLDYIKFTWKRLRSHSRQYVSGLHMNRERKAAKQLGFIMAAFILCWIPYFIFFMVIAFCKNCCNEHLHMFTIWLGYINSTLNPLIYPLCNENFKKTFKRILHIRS
T4 sequence (P18089 whole entry): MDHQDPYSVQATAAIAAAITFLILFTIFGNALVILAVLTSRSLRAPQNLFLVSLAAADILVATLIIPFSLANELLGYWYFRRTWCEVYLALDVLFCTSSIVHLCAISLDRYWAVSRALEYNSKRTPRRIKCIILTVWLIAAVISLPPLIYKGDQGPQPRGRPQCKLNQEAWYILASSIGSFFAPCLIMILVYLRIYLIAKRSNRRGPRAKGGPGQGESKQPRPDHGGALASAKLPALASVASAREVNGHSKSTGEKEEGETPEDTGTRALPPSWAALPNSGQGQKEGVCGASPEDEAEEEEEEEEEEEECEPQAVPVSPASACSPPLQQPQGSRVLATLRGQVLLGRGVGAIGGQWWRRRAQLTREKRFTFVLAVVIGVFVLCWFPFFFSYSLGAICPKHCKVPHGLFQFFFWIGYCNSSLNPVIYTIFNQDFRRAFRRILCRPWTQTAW
T1 sequence (P11229 whole entry): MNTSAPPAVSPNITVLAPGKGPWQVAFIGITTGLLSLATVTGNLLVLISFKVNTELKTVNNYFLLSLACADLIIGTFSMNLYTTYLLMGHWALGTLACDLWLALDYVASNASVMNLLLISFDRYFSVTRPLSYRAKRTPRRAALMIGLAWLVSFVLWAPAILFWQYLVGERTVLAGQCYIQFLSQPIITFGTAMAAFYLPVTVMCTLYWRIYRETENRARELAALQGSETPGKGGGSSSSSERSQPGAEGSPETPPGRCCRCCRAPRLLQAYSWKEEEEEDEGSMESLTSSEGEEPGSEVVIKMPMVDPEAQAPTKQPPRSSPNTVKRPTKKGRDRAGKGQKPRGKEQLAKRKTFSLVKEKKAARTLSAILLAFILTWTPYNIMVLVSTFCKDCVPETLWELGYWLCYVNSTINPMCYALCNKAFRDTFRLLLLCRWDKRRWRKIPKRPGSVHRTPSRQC

`CNCC/C=C1\c2ccccc2C[C@H](O)c2ccccc21` (stereo in doubt) [(+)-E-10-OH-NT]: the Ki – broadly, the dissociation constant of the complex between target and ligand, obtained from inhibition or displacement – in data set [1] is 710 nM; in data set [3] it was 820 nM; in data set [4] (setting [8]), 52 nM; in data set [4] (Example 14, read-out: NET Ki) it was 95 nM; on α2b adrenergic receptor, 4200 nM; in data set [6] (setting [9]), 400 nM. For the same compound, the Ki in data set [6] (Example 14, read-out: SERT Ki) was 361 nM. Moreover, the IC50 (commonly the point on the concentration scale where inhibition reaches its midpoint) in data set [2] is 860 nM. The “reduction of H1 histaminergic receptor affinity compared to AT” value in data set [5] was determined as 220 fold. In data set [5], the “reduction of H1 histaminergic receptor affinity compared to NT” value is 40 fold.

For the compound `CNCC/C=C1\c2ccccc2C[C@@H](O)c2ccccc21` (stereo in doubt) [(−)-E-10-OH-NT], in data set [7], the “inhibition of gastrointestinal transit (% GIT)” value is “markedly lower inhibition of transit as compared to both AT and NT”. Also, the Ki was determined as 410 nM in data set [1]; 390 nM in data set [3]; 44 nM in data set [4] (setting [8]); 81 nM in data set [4] (Example 14, read-out: NET Ki); 4300 nM at α2b adrenergic receptor; 660 nM in data set [6] (setting [9]). For the same compound, the inhibitory constant (Ki) in data set [6] (Example 14, read-out: SERT Ki) is 617 nM. For the same compound, the IC50 in data set [2] was found to be 4400 nM. For the same compound, the “reduction of H1 histaminergic receptor affinity compared to AT” value in data set [5] is given as 220 fold. For the same compound, in data set [5], the “reduction of H1 histaminergic receptor affinity compared to NT” value worked out at 40 fold.
